According to paper PMC7729925, “Selective hepatitis B and D virus entry inhibitors from the group of pentacyclic lupane-type betulin-derived triterpenoids” (Scientific Reports, 2020):
Like-named read-outs stand apart in the source and are kept apart here. Values belong to the compound of their own block, whether it stands above or below them.

What was measured:
HDV = assay: in vitro HDV infection of NTCP-HepG2 cells; format: cell-based; settings: for inhibition of in vitro HDV infection: 5–300 µM (2, 19) or 5–600 µM (4, 17), 6 h with 700 genome equivalents/cell, HDAg immunostaining day 9
Protocol: At day 9 post infection, cells were fixed and an immunostaining against the HDAg was performed, as a marker of HDV infection. The number of infected cells per well was determined by fluorescence microscopy. NTCP-HepG2 cells incubated without inhibitor were used as control (set to 100% infection rate). Infection experiments in the presence of 0.5 µM myr-preS1_2-48 peptide served as control for the 0% infection rate. Scale bars: 100 µm. Data represent means ± SEM of three independent experiments each with triplicate determinations (n = 9). […] Data were combined from two independent experiments, each with quadruplicate determinations (n = 8). (h) Cell viability was determined with an LDH cytotoxicity assay. HepG2 cells treated with HGM w/o test compound were used as positive control and lysed cells as negative control.
For infection experiments NTCP-HepG2 cells were cultured in 96-well plates in Hepatocyte Growth Medium (HGM) consisting of William’s E Medium (Thermo Fisher Scientific) containing 2% bovine serum albumin (BSA, Roth), 2 mM L-Glutamin (Thermo Fisher Scientific), 100 µg/ml gentamicin (Thermo Fisher Scientific), 10 nM dexamethasone (Sigma-Aldrich), 1 mM sodium pyruvate (Thermo Fisher Scientific), 1 × Insulin-Transferrin-Selen (Thermo Fisher Scientific), 2% DMSO (Merck, Darmstadt, Germany), 4% polyethylene glycol (Sigma-Aldrich) and 2 µg/ml doxycycline (Sigma-Aldrich) as reported. Subsequently, cells were washed with DMEM and cultured in HGM supplemented with 2% DMSO, 2% BSA and 2 µg/ml doxycycline. […] HDV stock solved in 20 µl HGM per well was added for infection and cells were incubated for 6 h with final concentration of 700 genome equivalents/cell of HDV particles. HDV production was done in vitro as described before[55],[56]. RT-qPCR was performed to determine genome equivalents. Every three days medium was changed until cells were fixed at 9 days post infection with 3% paraformaldehyde (Sigma-Aldrich) in PBS, for 30 min at room temperature (RT). Cells were permeabilized with 0.2% Triton X 100 (Roth) in PBS for 30 min at RT, and blocked by incubation with 5% bovine serum albumin (Roth) in PBS, for 30 min at RT. Then, cells were immunostained with purified human anti-HDV-positive serum at 37 °C for 1 h (1:400 dilution). Goat anti-human IgG secondary antibody coupled to Alexa Fluor fluorophore (1:400 dilution, Thermo Fisher Scientific) was added for 1 h at 37 °C for detection of Hepatitis Delta antigen (HDAg) as described before.

mice = settings: cited from earlier work
rats = settings: single i.p. application of 400 mg/kg; cited from earlier work
NTCP [1] = biological target: T1, NTCP (Homo sapiens, UniProt Q14973); assay: [3H]TC transport (bile acid uptake) inhibition in NTCP-HEK293 cells; format: cell-based
T1 construct: expressed in transfected cells
T1 sequence (Q14973 1-349): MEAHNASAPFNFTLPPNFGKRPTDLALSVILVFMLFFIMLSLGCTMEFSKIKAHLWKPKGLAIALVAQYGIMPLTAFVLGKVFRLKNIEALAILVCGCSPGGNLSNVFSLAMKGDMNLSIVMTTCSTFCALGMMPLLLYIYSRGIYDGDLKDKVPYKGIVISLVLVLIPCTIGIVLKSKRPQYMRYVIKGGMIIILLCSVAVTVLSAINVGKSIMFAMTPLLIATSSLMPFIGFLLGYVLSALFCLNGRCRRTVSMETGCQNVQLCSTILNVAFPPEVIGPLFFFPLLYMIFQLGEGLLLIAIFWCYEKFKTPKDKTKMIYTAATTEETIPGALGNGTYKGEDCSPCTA
Protocol: (§1) The major goal of the present study was to analyze in parallel the effect of inhibitors on both, bile acid transport via NTCP and myr-preS1_2-48 lipopeptide binding to NTCP in a cell culture system. […] NTCP-HEK293 cells were seeded onto 96-well plates and were incubated with tetracycline in order to induce expression of the human NTCP protein. […] Experiments were performed with solvent alone (set to 100%) and with increasing concentrations of the indicated inhibitors. […] Half maximal inhibitory concentrations (IC50) were calculated by nonlinear regression analysis using the equation log(inhibitor) versus response (GraphPad Prism). […] Data represent means ± SD of quadruplicate determinations of representative experiments. […] In parallel, [^3H]preS1 peptide binding experiments were performed with a tritium-labelled myr-preS1_2-48 lipopeptide -HBV subgenotype D3- that was purchased from Pharmaron (120 Ci/mmol, 1 mCi/ml, Cardiff, UK). […] Experiments were stopped after 10 min by two-times washing with ice-cold PBS. For 0% uptake/binding control, the NTCP-HEK293 cells were not induced with tetracycline (-tet). […] Transport rates and [^3H]preS1 binding were determined in counts per minute (cpm). […] IC50 values were calculated from quadruplicate determinations by GraphPad Prism 6 (GraphPad, San Diego, CA, USA).

NTCP [2] = biological target: T1, NTCP; assay: [3H]preS1 (myr-preS1_2-48 lipopeptide) binding inhibition in NTCP-HEK293 cells; settings: for IC50: NTCP-HEK293 cells; for Selectivity index: ratio of mean IC50 [3H]TC transport inhibition / IC50 [3H]preS1 binding inhibition
Protocol: as §1

NTCP [3] = biological target: T1, NTCP; design: method as in earlier work; settings: ref 25 (Shimura et al.); read-out: IC50 bile acid transport inhibition; cited from earlier work
HBV = tested on: HBV; design: method as in earlier work; settings: ref 25 (Shimura et al.); read-out: IC50 in vitro HBV infection; cited from earlier work
HBV/HDV = tested on: HBV/HDV; design: method as in PMID 15650187; settings: cited from earlier work
[4] = IC50 ([3H]preS1 binding), 95% confidence interval, inhibition of 5 nM [3H]preS1 binding, 10 min, 37 °C
[5] = 95% confidence interval, inhibition of 1 µM [3H]TC uptake, NTCP-HEK293 cells, 10 min, 37 °C, read-out: IC50 ([3H]TC uptake)

Compound: C=C(C)[C@@H]1CC[C@]2(C(=O)O)CC[C@]3(C)[C@H](CC[C@@H]4[C@@]5(C)CC[C@H](O)C(C)(C)[C@@H]5CC[C@]43C)[C@@H]12 [Compound 4, Betulinic acid]
- inhibition of in vitro HDV infection (HDV): significantly blocked
- toxic effects in mice, repeated dose (mice; 100 mg/kg i.p. every 3–4 days for a total of six treatments): no toxic effects were observed
- toxic effects in mice, single dose (mice; 500 mg/kg i.p. once): no toxic effects were observed
- toxic effects in rats (rats): no toxic effects were observed

Compound: C=C(C)[C@@H]1CC[C@]2(C)CC[C@]3(C)[C@H](CC[C@@H]4[C@@]5(C)CCC(=O)C(C)(C)[C@@H]5CC[C@]43C)[C@@H]12 [Compound 17, Lupenone]
- IC50 (NTCP [1]; read-out: IC50 ([3H]TC uptake)): 146 to 397 µM
- IC50 (NTCP [2]; [4]): 13.1 to 35.5 µM
- IC50 (NTCP [2]; IC50 [3H]preS1 binding inhibition, mean IC50, 5 nM [3H]preS1, standard pH 7.4): 11 to 50 µM
- inhibition of in vitro HDV infection (HDV): significantly blocked

Compound: C=C(C)[C@@H]1CC[C@]2(C(=O)N[C@@H](CC(=O)OC)C(=O)OC)CC[C@]3(C)[C@H](CC[C@@H]4[C@@]5(C)CCC(=O)C(C)(C)[C@@H]5CC[C@]43C)[C@@H]12 [Compound 19, Betulonoyl dimethyl-L-aspartate]
- IC50 (NTCP [1]; [5]): 298 to 1430 µM
- IC50 (NTCP [2]; mean IC50, 5 nM [3H]preS1, standard pH 7.4, read-out: IC50 [3H]preS1 binding inhibition): 11 to 50 µM
- Selectivity index (NTCP [2]): 28
- inhibition of in vitro HDV infection (HDV): significantly blocked

Compound: CC(=O)OC[C@]12CCC(C(C)C)=C1[C@H]1CC[C@@H]3[C@@]4(C)CC[C@H](OC(C)=O)C(C)(C)[C@@H]4CC[C@@]3(C)[C@]1(C)CC2 [Compound 28, 3,28-Di-O-acetyl-18,19-dehydro-20,29-dihydrobetulin]
- [3H]TC transport inhibition (in words) (NTCP [1]; 0.1–1,000 µM, NTCP-HEK293 cells): no transport inhibition at all
- IC50 (NTCP [1]; [5]): > 1000 µM
- IC50 (NTCP [1]; mean IC50, […] µM [3H]TC, NTCP-HEK293 cells, standard pH 7.4, read-out: IC50 [3H]TC transport inhibition): > 1000 µM
- IC50 (NTCP [2]; 95% confidence interval, inhibition of 5 nM [3H]preS1 binding, 10 min, 37 °C, read-out: IC50 ([3H]preS1 binding)): 30 to 133 µM
- Selectivity index (NTCP [2]): > 16

- IC50 (NTCP [1]; read-out: IC50 ([3H]TC uptake)): 212 to 675 µM
- IC50 (NTCP [2]; [4]): 9.67 to 20.8 µM
Compound: CC1(C)CC[C@]23CC[C@]4(C)[C@H](CC[C@@H]5[C@@]6(C)CC[C@H](O)C(C)(C)[C@@H]6CC[C@]54C)[C@H]2[C@H]1OC3 [Compound 29, Allobetulin]

Compound: CC=CCC(C)C(O)C1C(=O)NC(CC)C(=O)N(C)C(OCCOC)C(=O)N(C)C(CC(C)(C)O)C(=O)NC(C(C)C)C(=O)N(C)C(CC(C)C)C(=O)NC(C)C(=O)NC(C)C(=O)N(C)C(CC(C)C)C(=O)N(C)C(CC(C)C)C(=O)N(C)C(C(C)C)C(=O)N1C (centres unmarked) [SCY995]
- IC50 (NTCP [3]): > 25 µM
- IC50 (HBV): < 8 µM

Compound: CCCCCCCCCCCCCC(=O)NCC(=O)N[C@@H](CCC(N)=O)C(=O)N[C@@H](CC(N)=O)C(=O)N[C@@H](CC(C)C)C(=O)N[C@@H](CO)C(=O)N[C@H](C(=O)N[C@@H](CO)C(=O)N[C@@H](CC(N)=O)C(=O)N1CCC[C@H]1C(=O)N[C@@H](CC(C)C)C(=O)NCC(=O)N[C@@H](Cc1ccccc1)C(=O)N[C@@H](Cc1ccccc1)C(=O)N1CCC[C@H]1C(=O)N[C@@H](CC(=O)O)C(=O)N[C@@H](Cc1c[nH]cn1)C(=O)N[C@@H](CCC(N)=O)C(=O)N[C@@H](CC(C)C)C(=O)N[C@@H](CC(=O)O)C(=O)N1CCC[C@H]1C(=O)N[C@@H](C)C(=O)N[C@@H](Cc1ccccc1)C(=O)N[C@@H](CCCNC(=N)N)C(=O)N[C@@H](C)C(=O)N[C@@H](CC(N)=O)C(=O)N[C@H](C(=O)N[C@@H](C)C(=O)N[C@@H](CC(N)=O)C(=O)N1CCC[C@H]1C(=O)N[C@@H](CC(=O)O)C(=O)N[C@@H](Cc1c[nH]c2ccccc12)C(=O)N[C@@H](CC(=O)O)C(=O)N[C@@H](Cc1ccccc1)C(=O)N[C@@H](CC(N)=O)C(=O)N1CCC[C@H]1C(=O)N[C@@H](CC(N)=O)C(=O)N[C@@H](CCCCN)C(=O)N[C@@H](CC(=O)O)C(=O)N[C@H](C(=O)N[C@@H](Cc1c[nH]c2ccccc12)C(=O)N1CCC[C@H]1C(=O)N[C@@H](CC(=O)O)C(=O)N[C@@H](C)C(=O)N[C@@H](CC(N)=O)C(=O)N[C@@H](CCCCN)C(=O)N[C@H](C(=O)NCC(N)=O)C(C)C)[C@@H](C)O)[C@@H](C)O)[C@@H](C)O [myr-preS1_2-48 lipopeptide, reference compound]
- IC50 of in vitro HBV/HDV infection (HBV/HDV): low nanomolar range
- in vitro HDV infection with peptide control (HDV; co-incubation with 0.5 µM, set to 0% infection rate): completely abolished infection
